# What was measured:
# [1] = test system: brassinosteroid biosynthesis; details: reported in Japanese Patent Application No. 10-227939; cited from earlier work
# [2] = test system: elongation of cress lower hypocotyl; assay: Inhibition of elongation of cress lower hypocotyl, with rescue by brassinolide or gibberellin; format: in vivo; details: FIG. 2
# Method: Surfaces of cress seeds purchased were sterilized with 1% NaOCl solution for 20 minutes and washed 5 times with distilled water. The resulting cress seeds were sown on 1% agar-solidified medium (containing 0.5×Murashige and Skoog salts and 1.5% sucrose in Agripot (Kirin Brew Co., Tokyo)). The plants was grown in a growth chamber kept at 25[…] under a cycle of 16 hour light (240 μEm-2s-1) and 8 hour dark conditions. […] The inhibitory effect of the compound of the present invention against elongation of cress lower hypocotyl was suppressed by addition of blassinolide, whilst not suppressed by addition of gibberellin (FIG. 1).
Compound,inhibitory action against the brassinosteroid biosynthesis [1],"inhibitory action against brassinosteroid biosynthesis, comparison with Brz91 [2]"
"CC(O)(c1ccccc1)C(Cc1ccc(Cl)cc1)c1nc[nH]n1 (centres unmarked) [Brz91, 4-(4-chlorophenyl)-2-phenyl-3-(1,2,4-triazolyl)butan-2-ol]",had the desired inhibitory action,–
"C=CCC(O)(c1ccccc1)C(Cc1ccc(Cl)cc1)n1cncn1 (centres unmarked) [Brz2001, 6-(4-Chlorophenyl)-4-phenyl-5-(1,2,4-triazoyl)hexen-1-en-4-ol]",–,inhibitory action
